Results on 13 compounds are retold here after patent US20230073777A1, “CYCLIC-AMP RESPONSE ELEMENT BINDING PROTEIN (CBP) AND/OR ADENOVIRAL E1A BINDING PROTEIN OF 300 KDA (P300) DEGRADATION COMPOUNDS AND METHODS OF USE” (CULLGEN (SHANGHAI), INC., priority 2019, published 2023).

What is called IC50 is the concentration needed to halve the response being measured.

One test addresses P300 (Homo sapiens, UniProt Q09472). The test can be described thus: Immunoblotting of P300 protein levels in LNCaP or 22RV1 cells. Also noted: LNCaP or 22RV1 cells that express CBP/P300 proteins were treated with GNE-781 or the bivalent compounds; endogenous in cells; host or cells: LNCaP (clone FGC) or 22RV1 cells. Conditions: read-out: Degradation (10 nM). In kind it is cell-based. The essentials:
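P300/CBP levels quantified by chemiluminescent immunoblot band densitometry, normalized against tubulin or vinculin loading controls. Lysates came from LNCaP or 22RV1 cells exposed to compounds or DMSO vehicle for indicated times.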
(In general: Immunoblotting shows a protein as a band on a membrane.)

Another test concerns LNCaP cells. Description: LNCaP cell viability assay (CellTiter-Glo). The test is classed as cell-based. The conditions noted are these: Homo sapiens, 72 h, LNCaP prostate cancer cell viability inhibition, 3 days. The essentials: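 Three-day treatment of LNCaP cells (5000 per well) across a 12-point, 3-fold dilution series starting at 10 μM. ATP luminescence (CellTiter-Glo) relative to untreated controls gave dose-response curves fitted nonlinearly for IC50.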

Setting [1] is: percentage of inhibition of p300 at 10 nM (Table 3).
Setting [2] is: percentage of inhibition of p300 at 10 nM (Table 2).

Where two headings read alike, the source gives them in different places.

Chain of P300 (Q09472 whole entry): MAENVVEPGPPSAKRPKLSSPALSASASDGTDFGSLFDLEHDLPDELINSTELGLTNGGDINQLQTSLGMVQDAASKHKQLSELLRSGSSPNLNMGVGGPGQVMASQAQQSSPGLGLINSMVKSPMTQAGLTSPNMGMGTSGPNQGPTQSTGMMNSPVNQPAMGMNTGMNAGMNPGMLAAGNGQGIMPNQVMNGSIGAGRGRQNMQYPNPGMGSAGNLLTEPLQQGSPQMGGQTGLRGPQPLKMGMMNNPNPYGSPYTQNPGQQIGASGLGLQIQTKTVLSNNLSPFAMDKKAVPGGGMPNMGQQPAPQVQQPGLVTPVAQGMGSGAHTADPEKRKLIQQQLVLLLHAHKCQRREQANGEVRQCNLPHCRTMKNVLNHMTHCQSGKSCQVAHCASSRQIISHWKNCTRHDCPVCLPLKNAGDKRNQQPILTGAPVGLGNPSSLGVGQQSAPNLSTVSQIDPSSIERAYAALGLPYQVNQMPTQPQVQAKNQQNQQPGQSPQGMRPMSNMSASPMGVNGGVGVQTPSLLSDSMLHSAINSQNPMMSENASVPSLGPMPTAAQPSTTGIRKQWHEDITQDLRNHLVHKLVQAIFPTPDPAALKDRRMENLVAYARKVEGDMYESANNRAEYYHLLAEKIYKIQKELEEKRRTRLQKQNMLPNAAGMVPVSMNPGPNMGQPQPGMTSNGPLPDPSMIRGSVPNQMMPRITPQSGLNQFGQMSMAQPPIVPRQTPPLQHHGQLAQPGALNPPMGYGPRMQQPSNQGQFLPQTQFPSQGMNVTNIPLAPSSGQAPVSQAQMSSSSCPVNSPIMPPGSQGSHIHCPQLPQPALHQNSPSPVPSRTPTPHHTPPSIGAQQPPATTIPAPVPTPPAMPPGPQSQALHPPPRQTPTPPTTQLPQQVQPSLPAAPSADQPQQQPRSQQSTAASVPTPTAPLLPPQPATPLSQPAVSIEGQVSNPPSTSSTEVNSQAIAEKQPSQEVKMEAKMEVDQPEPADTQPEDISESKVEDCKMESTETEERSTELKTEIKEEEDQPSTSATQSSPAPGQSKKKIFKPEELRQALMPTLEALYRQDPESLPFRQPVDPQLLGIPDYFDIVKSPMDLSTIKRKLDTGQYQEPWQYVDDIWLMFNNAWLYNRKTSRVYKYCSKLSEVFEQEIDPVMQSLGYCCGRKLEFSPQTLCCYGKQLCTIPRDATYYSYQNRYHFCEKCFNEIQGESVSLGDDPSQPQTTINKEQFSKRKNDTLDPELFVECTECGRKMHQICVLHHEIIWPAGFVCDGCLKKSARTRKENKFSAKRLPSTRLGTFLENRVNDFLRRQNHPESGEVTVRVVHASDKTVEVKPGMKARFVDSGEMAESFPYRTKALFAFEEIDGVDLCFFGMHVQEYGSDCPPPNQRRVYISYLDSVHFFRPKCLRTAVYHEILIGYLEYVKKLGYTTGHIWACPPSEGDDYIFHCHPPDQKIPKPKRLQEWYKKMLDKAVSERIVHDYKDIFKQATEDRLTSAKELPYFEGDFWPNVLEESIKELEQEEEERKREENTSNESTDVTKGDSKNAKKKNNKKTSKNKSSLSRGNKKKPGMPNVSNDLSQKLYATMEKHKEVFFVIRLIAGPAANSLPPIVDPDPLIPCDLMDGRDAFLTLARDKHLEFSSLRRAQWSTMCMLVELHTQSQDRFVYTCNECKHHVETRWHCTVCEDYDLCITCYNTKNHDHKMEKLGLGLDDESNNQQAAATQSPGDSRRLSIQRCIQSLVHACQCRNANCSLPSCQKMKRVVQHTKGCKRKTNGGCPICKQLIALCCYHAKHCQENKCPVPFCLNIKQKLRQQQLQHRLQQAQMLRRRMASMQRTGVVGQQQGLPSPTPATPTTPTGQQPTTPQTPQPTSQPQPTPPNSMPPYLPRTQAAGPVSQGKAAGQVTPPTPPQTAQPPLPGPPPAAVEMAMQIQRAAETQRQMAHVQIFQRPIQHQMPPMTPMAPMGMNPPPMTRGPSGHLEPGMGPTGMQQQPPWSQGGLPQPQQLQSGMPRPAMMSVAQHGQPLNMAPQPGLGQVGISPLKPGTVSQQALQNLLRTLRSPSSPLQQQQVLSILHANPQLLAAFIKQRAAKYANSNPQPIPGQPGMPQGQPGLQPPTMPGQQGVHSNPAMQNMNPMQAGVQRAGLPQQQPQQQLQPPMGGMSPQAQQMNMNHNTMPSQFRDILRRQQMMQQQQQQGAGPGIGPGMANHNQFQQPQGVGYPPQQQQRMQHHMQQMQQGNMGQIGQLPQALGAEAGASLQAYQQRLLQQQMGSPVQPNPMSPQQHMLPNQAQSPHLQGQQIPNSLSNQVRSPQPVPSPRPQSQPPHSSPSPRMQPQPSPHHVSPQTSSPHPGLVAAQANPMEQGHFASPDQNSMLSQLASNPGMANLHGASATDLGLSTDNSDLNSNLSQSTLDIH

For `CNC(=O)N1CCc2c(c(N3CCCc4cc(-c5cnn(C)c5)c(C(F)F)cc43)nn2C2CCN(C(=O)CCCCCCCC(=O)N[C@H](C(=O)N3C[C@H](O)C[C@H]3C(=O)NCc3ccc(-c4scnc4C)cc3)C(C)(C)C)CC2)C1` [P-061, 3-(7-(Difluoromethyl)-6-(1-methyl-1H-pyrazol-4-yl)-3,4-dihydroquinolin-1(2H)-yl)-1-(1-(9-(((S)-1-((2S,4R)-4-hydroxy-2-((4-(4-methylthiazol-5-yl)benzyl)carbamoyl)pyrrolidin-1-yl)-3,3-dimethyl-1-oxobutan-2-yl)amino)-9-oxononanoyl)piperidin-4-yl)-N-methyl-1,4,6,7-tetrahydro-5H-pyrazolo[4,3-c]pyridine-5-carboxamide], the inhibition at 0.01 µM on P300 (setting [1]) was less than 20%. In addition, it took 81.3 nM to reach half-maximal inhibition in the test on LNCaP cells (CellTiter-Glo (Table 3)) (IC50).
Regarding `CNC(=O)N1CCc2c(c(N3CCCc4cc(-c5cnn(CC(=O)NCCOCCOCCOCCOCCNc6ccc7c(c6)C(=O)N(C6CCC(=O)NC6=O)C7=O)c5)c(C(F)F)cc43)nn2C2CCOCC2)C1` (centres unmarked) [P-031, 3-(7-(Difluoromethyl)-6-(1-(17-((2-(2,6-dioxopiperidin-3-yl)-1,3-dioxoisoindolin-5-yl)amino)-2-oxo-6,9,12,15-tetraoxa-3-azaheptadecyl)-1H-pyrazol-4-yl)-3,4-dihydroquinolin-1(2H)-yl)-N-methyl-1-(tetrahydro-2H-pyran-4-yl)-1,4,6,7-tetrahydro-5H-pyrazolo[4,3-c]pyridine-5-carboxamide], on P300 (setting [2]), the inhibition at 0.01 µM is less than 20%. This compound returned a half-inhibitory concentration (IC50) in the test on LNCaP cells (CellTiter-Glo (Table 2)) of 566 nM.
The corresponding values for `CNC(=O)N1CCc2c(c(N3CCCc4cc(-c5cnn(CC(=O)NCCCCNc6ccc7c(c6)C(=O)N(C6CCC(=O)NC6=O)C7=O)c5)c(C(F)F)cc43)nn2C2CCOCC2)C1` (centres unmarked) [P-018] are 20 to 50% and 59.4 nM.
As for `CNC(=O)N1CCc2c(c(N3CCCc4cc(-c5cnn(C)c5)c(C(F)F)cc43)nn2C2CCN(C(=O)CCOCCNc3cccc4c3C(=O)N(C3CCC(=O)NC3=O)C4=O)CC2)C1` (centres unmarked) [P-051, 3-(7-(Difluoromethyl)-6-(1-methyl-1H-pyrazol-4-yl)-3,4-dihydroquinolin-1(2H)-yl)-1-(1-(3-(2-((2-(2,6-dioxopiperidin-3-yl)-1,3-dioxoisoindolin-4-yl)amino)ethoxy)propanoyl)piperidin-4-yl)-N-methyl-1,4,6,7-tetrahydro-5H-pyrazolo[4,3-c]pyridine-5-carboxamide], the inhibition at 0.01 µM at P300 (setting [1]) was less than 20%. This compound gave a concentration for half-maximal inhibition (IC50) with LNCaP cells (CellTiter-Glo (Table 3)) of 27.5 nM.
Regarding `CNC(=O)N1CCc2c(c(N3CCCc4cc(-c5cnn(C)c5)c(C(F)F)cc43)nn2C2CCN(C(=O)CCCCC(=O)N[C@H](C(=O)N3C[C@H](O)C[C@H]3C(=O)NCc3ccc(-c4scnc4C)cc3)C(C)(C)C)CC2)C1` [P-058, 3-(7-(Difluoromethyl)-6-(1-methyl-1H-pyrazol-4-yl)-3,4-dihydroquinolin-1(2H)-yl)-1-(1-(6-(((S)-1-((2S,4R)-4-hydroxy-2-((4-(4-methylthiazol-5-yl)benzyl)carbamoyl)pyrrolidin-1-yl)-3,3-dimethyl-1-oxobutan-2-yl)amino)-6-oxohexanoyl)piperidin-4-yl)-N-methyl-1,4,6,7-tetrahydro-5H-pyrazolo[4,3-c]pyridine-5-carboxamide], the inhibition at 0.01 µM at P300 (setting [1]) is less than 20%. Moreover, 67.8 nM corresponded to half-maximal inhibition with LNCaP cells (CellTiter-Glo (Table 3)) (IC50).
As for `CNC(=O)N1CCc2c(c(N3CCCc4cc(-c5cnn(C)c5)c(C(F)F)cc43)nn2C2CCN(CCCCCCOc3cccc4c3C(=O)N(C3CCC(=O)NC3=O)C4=O)CC2)C1` (centres unmarked) [P-091, 3-(7-(difluoromethyl)-6-(1-methyl-1H-pyrazol-4-yl)-3,4-dihydroquinolin-1(2H)-yl)-1-(1-(6-((2-(2,6-dioxopiperidin-3-yl)-1,3-dioxoisoindolin-4-yl)oxy)hexyl)piperidin-4-yl)-N-methyl-1,4,6,7-tetrahydro-5H-pyrazolo[4,3-c]pyridine-5-carboxamide], the inhibition at 0.01 µM on P300 (setting [1]) is more than 80%. The compound further yielded an IC50 with LNCaP cells (CellTiter-Glo (Table 3)) of 2.1 nM.
For `CC(=O)N1CCc2c(c(N3CCCc4cc(-c5cnn(C)c5)c(C(F)F)cc43)nn2C2CCN(CC3CCN(CC#Cc4cccc5c4C(=O)N(C4CCC(=O)NC4=O)C5=O)CC3)CC2)C1` (centres unmarked) [P-150, 4-(3-(4-((4-(5-Acetyl-3-(7-(difluoromethyl)-6-(1-methyl-1H-pyrazol-4-yl)-3,4-dihydroquinolin-1(2H)-yl)-4,5,6,7-tetrahydro-1H-pyrazolo[4,3-c]pyridin-1-yl)piperidin-1-yl)methyl)piperidin-1-yl)prop-1-yn-1-yl)-2-(2,6-dioxopiperidin-3-yl)isoindoline-1,3-dione], the inhibition at 0.01 µM at P300 (setting [1]) was more than 80%. The same compound displayed a 50% inhibitory concentration (IC50) in the test with LNCaP cells (CellTiter-Glo (Table 3)) of 191 nM.
As to `CNC(=O)N1CCc2c(c(N3CCCc4cc(-c5cnn(C)c5)c(C(F)F)cc43)nn2C2CCN(C(=O)CCCCCn3c(=O)n(C4CCC(=O)NC4=O)c4ccccc43)CC2)C1` (centres unmarked) [P-105, 3-(7-(Difluoromethyl)-6-(1-methyl-1H-pyrazol-4-yl)-3,4-dihydroquinolin-1(2H)-yl)-1-(1-(6-(3-(2,6-dioxopiperidin-3-yl)-2-oxo-2,3-dihydro-1H-benzo[d]imidazol-1-yl)hexanoyl)piperidin-4-yl)-N-methyl-1,4,6,7-tetrahydro-5H-pyrazolo[4,3-c]pyridine-5-carboxamide], the inhibition at 0.01 µM on P300 (setting [1]) is 50 to 80%. The 50% inhibitory concentration (IC50) with LNCaP cells (CellTiter-Glo (Table 3)) was determined as 44.5 nM.
The corresponding values for `CNC(=O)N1CCc2c(c(N3CCCc4cc(-c5cnn(C)c5)c(C(F)F)cc43)nn2C2CCN(C(=O)CCOCCOCCOCCC(=O)N[C@H](C(=O)N3C[C@H](O)C[C@H]3C(=O)NCc3ccc(-c4scnc4C)cc3)C(C)(C)C)CC2)C1` [P-069, 3-(7-(Difluoromethyl)-6-(1-methyl-1H-pyrazol-4-yl)-3,4-dihydroquinolin-1(2H)-yl)-1-(1-((S)-15-((2S,4R)-4-hydroxy-2-((4-(4-methylthiazol-5-yl)benzyl)carbamoyl)pyrrolidine-1-carbonyl)-16,16-dimethyl-13-oxo-4,7,10-trioxa-14-azaheptadecanoyl)piperidin-4-yl)-N-methyl-1,4,6,7-tetrahydro-5H-pyrazolo[4,3-c]pyridine-5-carboxamide] are less than 20% and 36.1 nM.
`CNC(=O)N1CCc2c(c(N3CCCc4cc(-c5cnn(C)c5)c(C(F)F)cc43)nn2C2CCN(C(=O)CCOCCNc3ccc4c(c3)C(=O)N(C3CCC(=O)NC3=O)C4=O)CC2)C1` (centres unmarked) [P-008, 3-(7-(Difluoromethyl)-6-(1-methyl-1H-pyrazol-4-yl)-3,4-dihydroquinolin-1(2H)-yl)-1-(1-(3-(2-((2-(2,6-dioxopiperidin-3-yl)-1,3-dioxoisoindolin-5-yl)amino)ethoxy)propanoyl)piperidin-4-yl)-N-methyl-1,4,6,7-tetrahydro-5H-pyrazolo[4,3-c]pyridine-5-carboxamide]: on P300 (setting [2]), the inhibition at 0.01 µM fell in the range of 20 to 50%. The IC50 with LNCaP cells (CellTiter-Glo (Table 2)) is more than 10000 nM.
For `CNC(=O)N1CCc2c(c(N3CCCc4cc(-c5cnn(CC(=O)NCCCCCCC(=O)N[C@H](C(=O)N6C[C@H](O)C[C@H]6C(=O)NCc6ccc(-c7scnc7C)cc6)C(C)(C)C)c5)c(C(F)F)cc43)nn2C2CCOCC2)C1` [P-080, 3-(7-(Difluoromethyl)-6-(1-(2-((7-(((S)-1-((2S,4R)-4-hydroxy-2-((4-(4-methylthiazol-5-yl)benzyl)carbamoyl)pyrrolidin-1-yl)-3,3-dimethyl-1-oxobutan-2-yl)amino)-7-oxoheptyl)amino)-2-oxoethyl)-1H-pyrazol-4-yl)-3,4-dihydroquinolin-1(2H)-yl)-N-methyl-1-(tetrahydro-2H-pyran-4-yl)-1,4,6,7-tetrahydro-5H-pyrazolo[4,3-c]pyridine-5-carboxamide], the inhibition at 0.01 µM on P300 (setting [1]) was less than 20%. The IC50 in the test with LNCaP cells (CellTiter-Glo (Table 3)) is more than 10000 nM.
Consider `CNC(=O)N1CCc2c(c(N3CCCc4cc(-c5cnn(C)c5)c(C(F)F)cc43)nn2C2CCN(C(=O)CCOCCOCCNc3ccc4c(c3)C(=O)N(C3CCC(=O)NC3=O)C4=O)CC2)C1` (centres unmarked) [P-009, 3-(7-(difluoromethyl)-6-(1-methyl-1H-pyrazol-4-yl)-3,4-dihydroquinolin-1(2H)-yl)-1-(1-(3-(2-(2-((2-(2,6-dioxopiperidin-3-yl)-1,3-dioxoisoindolin-5-yl)amino)ethoxy)ethoxy)propanoyl)piperidin-4-yl)-N-methyl-1,4,6,7-tetrahydro-5H-pyrazolo[4,3-c]pyridine-5-carboxamide], for which the inhibition at 0.01 µM on P300 (setting [2]) is 20 to 50%. The compound further came in with an IC50 in the test on LNCaP cells (CellTiter-Glo (Table 2)) of 114 nM.
Take `CNC(=O)N1CCc2c(c(N3CCCc4cc(-c5cnn(C)c5)c(C(F)F)cc43)nn2C2CCN(C(=O)COCC(=O)N[C@H](C(=O)N3C[C@H](O)C[C@H]3C(=O)NCc3ccc(-c4scnc4C)cc3)C(C)(C)C)CC2)C1` [P-064, 3-(7-(Difluoromethyl)-6-(1-methyl-1H-pyrazol-4-yl)-3,4-dihydroquinolin-1(2H)-yl)-1-(1-(2-(2-(((S)-1-((2S,4R)-4-hydroxy-2-((4-(4-methylthiazol-5-yl)benzyl)carbamoyl)pyrrolidin-1-yl)-3,3-dimethyl-1-oxobutan-2-yl)amino)-2-oxoethoxy)acetyl)piperidin-4-yl)-N-methyl-1,4,6,7-tetrahydro-5H-pyrazolo[4,3-c]pyridine-5-carboxamide]: the inhibition at 0.01 µM on P300 (setting [1]) is less than 20%. This compound registered an IC50 in the test with LNCaP cells (CellTiter-Glo (Table 3)) of 57.5 nM.
